Tests used:
Experiment in all cases: relative viability (nuclei count vs DMSO), 5 days (fraction); higher = more cells survive
[1] = compound: CN(C)C[C@@H]1CCn2cc(c3ccccc32)C2=C(C(=O)NC2=O)c2cn(c3ccccc23)CCO1 [Ruboxistaurin] + Cc1cc(Nc2cc(N3CCN(C)CC3)nc(Sc3ccc(NC(=O)C4CC4)cc3)n2)n[nH]1 [Tozasertib] (partner 0.1 µM)
Method in brief: (§1)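 Five library-drug doses in √10 steps were combined with a fixed anchor-drug dose, or a single drug was given alone, by pin tool to lung cancer cell lines in 1536-well plates the day after seeding. Nuclei were stained and counted after 5 days. Relative viability is the nuclei count in treated wells over that in vehicle wells, taken as the median of duplicate plates.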

[2] = compound: CN(C)C[C@@H]1CCn2cc(c3ccccc32)C2=C(C(=O)NC2=O)c2cn(c3ccccc23)CCO1 [Ruboxistaurin] + CCNC(=O)c1noc(-c2cc(C(C)C)c(O)cc2O)c1-c1ccc(CN2CCOCC2)cc1 [Luminespib] (partner 0.01 µM)
Method in brief: as §1

[3] = compound: CN(C)C[C@@H]1CCn2cc(c3ccccc32)C2=C(C(=O)NC2=O)c2cn(c3ccccc23)CCO1 [Ruboxistaurin] + N=C(N)NC(=N)NCCc1ccccc1 [Phenformin] (partner 250 µM)
Method in brief: as §1

[4] = compound: CN(C)C[C@@H]1CCn2cc(c3ccccc32)C2=C(C(=O)NC2=O)c2cn(c3ccccc23)CCO1 [Ruboxistaurin] + COc1cccc2cc(-c3nc([C@H]4CC[C@H](C(=O)O)CC4)n4ncnc(N)c34)[nH]c12 [OSI-027] (partner 0.5 µM)
Method in brief: as §1

[5] = compound: CN(C)C[C@@H]1CCn2cc(c3ccccc32)C2=C(C(=O)NC2=O)c2cn(c3ccccc23)CCO1 [Ruboxistaurin] + COc1cc2c(Oc3ccc(NC(=O)C4(C(=O)Nc5ccc(F)cc5)CC4)cc3F)ccnc2cc1OCCCN1CCOCC1 [Foretinib] (partner 0.25 µM)
Method in brief: as §1

[6] = compound: CN(C)C[C@@H]1CCn2cc(c3ccccc32)C2=C(C(=O)NC2=O)c2cn(c3ccccc23)CCO1 [Ruboxistaurin] + Cc1nc(Nc2ncc(C(=O)Nc3c(C)cccc3Cl)s2)cc(N2CCN(CCO)CC2)n1 [Dasatinib] (partner 0.075 µM)
Method in brief: as §1

[7] = compound: CN(C)C[C@@H]1CCn2cc(c3ccccc32)C2=C(C(=O)NC2=O)c2cn(c3ccccc23)CCO1 [Ruboxistaurin]
Method in brief: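 Viability was read as treated-well nuclei divided by vehicle-well nuclei, using the median across plates. Lung cancer cell lines in 1536-well plates were kept overnight at 37 °C, pinned with five √10-spaced library-drug doses, and after 5 days were Hoechst-stained, imaged at 4× and counted in MetaXpress. Plates passed only with control CV below 25% and at least one doubling.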

[8] = compound: CN(C)C[C@@H]1CCn2cc(c3ccccc32)C2=C(C(=O)NC2=O)c2cn(c3ccccc23)CCO1 [Ruboxistaurin] + O=C(c1cc(Cc2n[nH]c(=O)c3ccccc23)ccc1F)N1CCN(C(=O)C2CC2)CC1 [Olaparib] (partner 8 µM)
Method in brief: as §1

[9] = compound: CN(C)C[C@@H]1CCn2cc(c3ccccc32)C2=C(C(=O)NC2=O)c2cn(c3ccccc23)CCO1 [Ruboxistaurin] + Nc1ncn([C@H]2C[C@H](O)[C@@H](CO)O2)c(=O)n1 [Decitabine] (partner 2 µM)
Method in brief: as §1

[10] = compound: CN(C)C[C@@H]1CCn2cc(c3ccccc32)C2=C(C(=O)NC2=O)c2cn(c3ccccc23)CCO1 [Ruboxistaurin] + Nc1nc2[nH]cc(CCc3ccc(C(=O)N[C@@H](CCC(=O)O)C(=O)O)cc3)c2c(=O)[nH]1 [Pemetrexed] (partner 0.2 µM)
Method in brief: as §1

[11] = compound: CN(C)C[C@@H]1CCn2cc(c3ccccc32)C2=C(C(=O)NC2=O)c2cn(c3ccccc23)CCO1 [Ruboxistaurin] + CC(=O)c1c(C)c2cnc(Nc3ccc(N4CCNCC4)cn3)nc2n(C2CCCC2)c1=O [Palbociclib] (partner 0.5 µM)
Method in brief: as §1

[12] = compound: CN(C)C[C@@H]1CCn2cc(c3ccccc32)C2=C(C(=O)NC2=O)c2cn(c3ccccc23)CCO1 [Ruboxistaurin] + O=C(CCCCCCC(=O)Nc1ccccc1)NO [Vorinostat] (partner 1 µM)
Method in brief: as §1

[13] = compound: CN(C)C[C@@H]1CCn2cc(c3ccccc32)C2=C(C(=O)NC2=O)c2cn(c3ccccc23)CCO1 [Ruboxistaurin] + NC(=O)Nc1cc(-c2cccc(F)c2)sc1C(=O)N[C@H]1CCCNC1 [AZD7762] (partner 0.2 µM)
Method in brief: as §1

[14] = compound: CN(C)C[C@@H]1CCn2cc(c3ccccc32)C2=C(C(=O)NC2=O)c2cn(c3ccccc23)CCO1 [Ruboxistaurin] + CC(=O)Nc1cccc(-n2c(=O)n(C3CC3)c(=O)c3c(Nc4ccc(I)cc4F)n(C)c(=O)c(C)c32)c1 [Trametinib] (partner 0.02 µM)
Method in brief: as §1

## NCI-H1623
[1]; first compound 0.08 µM
  relative viability: 0.429
[1]; first compound 0.8 µM
  relative viability: 0.405
[1]; first compound 2.53 µM
  relative viability: 0.459
[1]; first compound 8 µM
  relative viability: 0.436
[2]; first compound 0.08 µM
  relative viability: 0.595
[2]; first compound 0.8 µM
  relative viability: 0.391
[2]; first compound 2.53 µM
  relative viability: 0.639
[2]; first compound 8 µM
  relative viability: 0.401
[3]; first compound 0.08 µM
  relative viability: 0.632
[3]; first compound 0.8 µM
  relative viability: 0.58
[3]; first compound 2.53 µM
  relative viability: 0.693
[3]; first compound 8 µM
  relative viability: 0.563
[4]; first compound 0.08 µM
  relative viability: 0.341
[4]; first compound 0.8 µM
  relative viability: 0.416
[4]; first compound 2.53 µM
  relative viability: 0.423
[4]; first compound 8 µM
  relative viability: 0.374
[5]; first compound 0.08 µM
  relative viability: 0.895
[5]; first compound 0.8 µM
  relative viability: 0.747
[5]; first compound 2.53 µM
  relative viability: 0.933
[5]; first compound 8 µM
  relative viability: 0.837
[6]; first compound 0.08 µM
  relative viability: 0.505
[6]; first compound 0.8 µM
  relative viability: 0.5
[6]; first compound 2.53 µM
  relative viability: 0.525
[6]; first compound 8 µM
  relative viability: 0.531
[7]; 0.08 µM
  relative viability: 1.03
[7]; 0.8 µM
  relative viability: 0.922
[7]; 2.53 µM
  relative viability: 1.01
[7]; 8 µM
  relative viability: 0.977

## NCI-H1648
[1]; first compound 0.08 µM
  relative viability: 0.439
[1]; first compound 0.8 µM
  relative viability: 0.438
[1]; first compound 2.53 µM
  relative viability: 0.482
[1]; first compound 8 µM
  relative viability: 0.792
[8]; first compound 0.08 µM
  relative viability: 1.33
[8]; first compound 0.8 µM
  relative viability: 0.64
[8]; first compound 2.53 µM
  relative viability: 0.797
[8]; first compound 8 µM
  relative viability: 1.22
[9]; first compound 0.08 µM
  relative viability: 0.514
[9]; first compound 0.8 µM
  relative viability: 0.501
[9]; first compound 2.53 µM
  relative viability: 0.44
[9]; first compound 8 µM
  relative viability: 0.536
[10]; first compound 0.08 µM
  relative viability: 0.699
[10]; first compound 0.8 µM
  relative viability: 0.717
[10]; first compound 2.53 µM
  relative viability: 0.612
[10]; first compound 8 µM
  relative viability: 0.894
[11]; first compound 0.08 µM
  relative viability: 0.248
[11]; first compound 0.8 µM
  relative viability: 0.254
[11]; first compound 2.53 µM
  relative viability: 0.285
[11]; first compound 8 µM
  relative viability: 0.247
[4]; first compound 0.08 µM
  relative viability: 0.246
[4]; first compound 0.8 µM
  relative viability: 0.278
[4]; first compound 2.53 µM
  relative viability: 0.291
[4]; first compound 8 µM
  relative viability: 0.274
[12]; first compound 0.08 µM
  relative viability: 0.622
[12]; first compound 0.8 µM
  relative viability: 0.433
[12]; first compound 2.53 µM
  relative viability: 0.425
[12]; first compound 8 µM
  relative viability: 0.634
[13]; first compound 0.08 µM
  relative viability: 0.621
[13]; first compound 0.8 µM
  relative viability: 0.591
[13]; first compound 2.53 µM
  relative viability: 0.835
[13]; first compound 8 µM
  relative viability: 0.865
[14]; first compound 0.08 µM
  relative viability: 0.643
[14]; first compound 0.8 µM
  relative viability: 0.53
[14]; first compound 2.53 µM
  relative viability: 0.455
[14]; first compound 8 µM
  relative viability: 0.681
[7]; 0.08 µM
  relative viability: 0.894
[7]; 0.8 µM
  relative viability: 0.966
[7]; 2.53 µM
  relative viability: 1.11
[7]; 8 µM
  relative viability: 1.15

## NCI-H2342
[1]; first compound 0.08 µM
  relative viability: 0.578
[1]; first compound 0.8 µM
  relative viability: 0.56
[1]; first compound 2.53 µM
  relative viability: 0.461
[1]; first compound 8 µM
  relative viability: 0.497
[8]; first compound 0.08 µM
  relative viability: 0.414
[8]; first compound 0.8 µM
  relative viability: 0.483
[8]; first compound 2.53 µM
  relative viability: 0.511
[8]; first compound 8 µM
  relative viability: 0.436
[2]; first compound 0.08 µM
  relative viability: 0.762
[2]; first compound 0.8 µM
  relative viability: 0.732
[2]; first compound 2.53 µM
  relative viability: 0.892
[2]; first compound 8 µM
  relative viability: 0.738
[9]; first compound 0.08 µM
  relative viability: 0.689
[9]; first compound 0.8 µM
  relative viability: 0.737
[9]; first compound 2.53 µM
  relative viability: 0.757
[9]; first compound 8 µM
  relative viability: 0.819
[3]; first compound 0.08 µM
  relative viability: 0.626
[3]; first compound 0.8 µM
  relative viability: 0.585
[3]; first compound 2.53 µM
  relative viability: 0.616
[3]; first compound 8 µM
  relative viability: 0.597
[10]; first compound 0.08 µM
  relative viability: 0.793
[10]; first compound 0.8 µM
  relative viability: 0.825
[10]; first compound 2.53 µM
  relative viability: 0.874
[10]; first compound 8 µM
  relative viability: 0.817
[11]; first compound 0.08 µM
  relative viability: 0.456
[11]; first compound 0.8 µM
  relative viability: 0.53
[11]; first compound 2.53 µM
  relative viability: 0.512
[11]; first compound 8 µM
  relative viability: 0.518
[4]; first compound 0.08 µM
  relative viability: 0.678
[4]; first compound 0.8 µM
  relative viability: 0.672
[4]; first compound 2.53 µM
  relative viability: 0.608
[4]; first compound 8 µM
  relative viability: 0.698
[12]; first compound 0.08 µM
  relative viability: 0.888
[12]; first compound 0.8 µM
  relative viability: 0.69
[12]; first compound 2.53 µM
  relative viability: 0.768
[12]; first compound 8 µM
  relative viability: 0.93
[13]; first compound 0.08 µM
  relative viability: 0.535
[13]; first compound 0.8 µM
  relative viability: 0.509
[13]; first compound 2.53 µM
  relative viability: 0.529
[13]; first compound 8 µM
  relative viability: 0.582
[5]; first compound 0.08 µM
  relative viability: 1.2
[5]; first compound 0.8 µM
  relative viability: 0.83
[5]; first compound 2.53 µM
  relative viability: 1.06
[5]; first compound 8 µM
  relative viability: 1.18
[6]; first compound 0.08 µM
  relative viability: 0.364
[6]; first compound 0.8 µM
  relative viability: 0.312
[6]; first compound 2.53 µM
  relative viability: 0.303
[6]; first compound 8 µM
  relative viability: 0.277
[14]; first compound 0.08 µM
  relative viability: 0.799
[14]; first compound 0.8 µM
  relative viability: 0.849
[14]; first compound 2.53 µM
  relative viability: 0.986
[14]; first compound 8 µM
  relative viability: 0.95
[7]; 0.08 µM
  relative viability: 1.02
[7]; 0.8 µM
  relative viability: 0.915
[7]; 2.53 µM
  relative viability: 1.06
[7]; 8 µM
  relative viability: 1.04
